# Data published in patent US9364426B2, “Method of making coated microstructures” (Georgia Tech Research Corporation, priority 2005, dated 2016).
# B1: ovalbumin (protein, UniProt P01012 2-386, looked up)
# Ovalbumin: GSIGAASMEFCFDVFKELKVHHANENIFYCPIAIMSALAMVYLGAKDSTRTQINKVVRFDKLPGFGDSIEAQCGTSVNVHSSLRDILNQITKPNDVYSFSLASRLYAEERYPILPEYLQCVKELYRGGLEPINFQTAADQARELINSWVESQTNGIIRNVLQPSSVDSQTAMVLVNAIVFKGLWEKAFKDEDTQAMPFRVTEQESKPVQMMYQIGLFRVASMASEKMKILELPFASGTMSMLVLLPDEVSGLEQLESIINFEKLTEWTSSNVMEERKIKVYLPRMKMEEKYNLTSVLMAMGITDVFSSSANLSGISSAESLKISQAVHAAHAEINEAGREVVGSAEAGVDAASVSEEFRADHPFLFCIKHIATNAVLFFGRCVSP
# notes: model ovalbumin antigen delivered from coated microneedles
# Assays:
# [1] = In vitro dissolution of microneedle coating in pig cadaver skin; format: in vitro ADME; conditions: single microneedles n=3
# Description: To assess the in vitro dissolution time, single microneedles (n=3) coated with vitamin B, calcein, or sulforhodamine, made as in Example 1, were inserted into pig cadaver skin for 10 s or 20 s. Upon removal, these microneedles were imaged by fluorescence microscopy to detect residual coating.
# [2] = cited from earlier work
# [3] = Delivery from individual coated microneedles in vitro into pig cadaver skin; format: in vitro ADME; conditions: 20 s insertion into pig cadaver skin
# Description: After removing the microneedles, fluorescence micrographs of coated microneedles and histological skin sections were collected using an Olympus IX70 fluorescent microscope with a CCD camera (RT Slider, Diagnostic Instruments). Brightfield micrographs were collected using an Olympus SZX12 stereomicroscope with a CCD camera (Leica DC 300, Leica Microsystems, Bannockburn, Ill., USA). Histological examination of pig cadaver skin was conducted on frozen sections. Pig cadaver skin was pierced with microneedles for 20 s, frozen in OCT compound (Tissue-Tek, 4583, Sakura Finetek, Torrance, Calif., USA), and cut into 10 μm-thick sections using a cryostat (Cryo-Star HM 560MV, Microm, Waldorf, Germany).
# [4] = coated onto microneedles; six months storage under nitrogen at room temperature; cited from earlier work
# guinea pigs = conditions: model antigen delivered from coated microneedles; cited from earlier work
# [5] = 10 s insertion into pig cadaver skin
# [6] = 20 s insertion into pig cadaver skin
molecule,measurement,setting,value
sulforhodamine,dissolution of microneedle coating (residual coating by fluorescence microscopy),[1]; [5],majority of the coating was dissolved
same,dissolution of microneedle coating (residual coating by fluorescence microscopy),[1]; [6],completely dissolved
COc1cc(/C=C/C(=O)CC(=O)/C=C/c2ccc(O)c(OC)c2)ccc1O [curcumin],solubility in water,[2],negligible
O=C(O)CN(CC(=O)O)Cc1cc2c(cc1O)Oc1cc(O)c(CN(CC(=O)O)CC(=O)O)cc1C21OC(=O)c2ccccc21 [calcein],dissolution of microneedle coating (residual coating by fluorescence microscopy),[1]; [5],majority of the coating was dissolved
same,dissolution of microneedle coating (residual coating by fluorescence microscopy),[1]; [6],completely dissolved
same,"distribution in skin, histology sections",[3],distribution of calcein along the periphery of the insertion point
same,residue on the skin after insertion,[3],No residue was observed
NC(=O)CC[C@@H]1NC(=O)[C@H](Cc2ccccc2)NC(=O)[C@H](Cc2ccc(O)cc2)NC(=O)CCSSC[C@@H](C(=O)N2CCC[C@H]2C(=O)N[C@H](CCCN=C(N)N)C(=O)NCC(N)=O)NC(=O)[C@H](CC(N)=O)NC1=O [desmopressin],integrity after storage,[4],98%
B1,immune response,guinea pigs,strong immune response
